These results are taken from article PMC7407491, “The Addition of a Synthetic LPS-Targeting Domain Improves Serum Stability While Maintaining Antimicrobial, Antibiofilm, and Cell Stimulating Properties of an Antimicrobial Peptide” (Biomolecules, 2020).

Holding throughout (experiment): Antibiogram of clinical isolate
What all share (format): cell-based
Common to all, as to parameters: key to Interpretation: R represents “resistant”; I represents “intermediate”; S represents “sensitive”

Experiment [1] deals with Methicillin Resistant Staphylococcus aureus. To be noted: veterinary clinical isolate. As for the experimental part: (§1) Veterinary clinical isolates, including Salmonella typhimurium, multi-drug resistant Escherichia coli, methicillin-resistant Staphylococcus aureus (MRSA), and methicillin-resistant Staphylococcus pseudointermedius (MRSP), were kindly provided by Dr. H. Cai (Department of Pathobiology, University of Guelph, ON, Canada). An antibiogram for these strains is available in the supplementary text (Table S1). Gram-negative strains were cultured in Luria−Bertani (LB) broth. Gram-positive strains were cultured in Tryptic soy broth (TSB). Both cultures were grown under aerobic conditions at 37 °C.
(§2) 1 Where R represents “resistant”, I represents “intermediate” and S represents “sensitive”.
(§3) 2 MIC represents the minimal inhibitory concentration of the antibiotic in mcg/mL.
(§4) 3 mm represents the diameter zone of inhibition against antibiotic disc.

For experiment [2], the system named is Methicillin Resistant Staphylococcus pseudointermedius. To be noted: veterinary clinical isolate. The procedure: as §1, §2, §3, §4
The next experiment deals with Escherichia coli. The note with it: multi-drug resistant veterinary clinical isolate. As for the experimental part:
as §1, §2, §3, §4

Setting [3] is: Staphylococcus aureus, read-out: MIC.
Where [4] appears, read: Escherichia coli, read-out: MIC.

Values after ≈ are worked out from the molar mass of the structure shown. Read-outs that look alike come from different tables or passages of the source.

By MIC is commonly meant the least concentration at which growth counts as inhibited. As to `NCC[C@H](O)C(=O)N[C@@H]1C[C@H](N)[C@@H](O[C@H]2O[C@H](CN)[C@@H](O)[C@H](O)[C@H]2O)[C@H](O)[C@H]1O[C@H]1O[C@H](CO)[C@@H](O)[C@H](N)[C@H]1O` [Amikacin], the MIC in experiment [1] (setting [3]) came to 9.5 µg/mL (≈ 16.2 µM). Besides, in experiment [1], the Interpretation entry was “S” and the “diameter zone of inhibition against antibiotic disc” value (shortened to “diameter zone of inhibition”) is 18 mm.
On to `CC1(C)S[C@@H]2[C@H](NC(=O)[C@H](N)c3ccccc3)C(=O)N2[C@H]1C(=O)O` [Ampicillin], for which the MIC in experiment [1] (setting [3]) is 19 µg/mL (≈ 54.4 µM); in experiment [2] (Staphylococcus, read-out: MIC), 12 µg/mL (≈ 34.3 µM); in the experiment with Escherichia coli (setting [4]), above 46 µg/mL. The Interpretation entry (in experiment [1]; in experiment [2]; in the experiment with Escherichia coli) was “R” each time. Also, the “diameter zone of inhibition” value in experiment [1] was 11 mm; in experiment [2], 13 mm; in the experiment with Escherichia coli it was 6 mm.
Take `CC1(C)S[C@@H]2[C@H](NC(=O)C(C(=O)O)c3ccccc3)C(=O)N2[C@H]1C(=O)O` (stereo partly drawn) [Carbenicillin]: in experiment [1], the Interpretation result is recorded as “R” and the “diameter zone of inhibition” value is on record as 15 mm.
On to `C=CC1=C(C(=O)O)N2C(=O)[C@@H](NC(=O)/C(=N\OCC(=O)O)c3csc(N)n3)[C@H]2SC1` [Cefixime], for which, in experiment [1] (setting [3]), the MIC is above 26 µg/mL. Further, in experiment [1], the Interpretation result was “R” and the “diameter zone of inhibition” value stood at 6 mm.
Consider `CO/N=C(/C(=O)N[C@@H]1C(=O)N2C(C(=O)O)=C([C@@H]3CCCO3)CS[C@H]12)c1csc(N)n1` [Cefovecin], for which, in experiment [2], the Interpretation result is “R” and the “diameter zone of inhibition” value worked out at 21 mm. For the same molecule, in the experiment on Escherichia coli, the Interpretation entry is listed as “R” and the “diameter zone of inhibition” value was found to be 6 mm.
As to `CO[C@@]1(NC(=O)Cc2cccs2)C(=O)N2C(C(=O)O)=C(COC(N)=O)CS[C@@H]21` [Cefoxitin], the Interpretation entry (in experiment [2]; in the experiment with Escherichia coli) was “R” throughout. In addition, the entries for the “diameter zone of inhibition” value (in experiment [2]; with Escherichia coli) were 24 mm and 6 mm, respectively. The MIC in the experiment on Escherichia coli (setting [4]) is above 69 µg/mL.
Turning to `CC(C)(O/N=C(\C(=O)N[C@@H]1C(=O)N2C(C(=O)[O-])=C(C[n+]3ccccc3)CS[C@H]12)c1csc(N)n1)C(=O)O` [Ceftazidime], the MIC in experiment [1] (setting [3]) is 41 µg/mL (≈ 75 µM). In experiment [1], the Interpretation entry is “R” and the “diameter zone of inhibition” value is on record as 13 mm.
On to `CO/N=C(\C(=O)N[C@@H]1C(=O)N2C(C(=O)O)=C(CSC(=O)c3ccco3)CS[C@H]12)c1csc(N)n1` [Ceftiofur], for which, in experiment [1] (setting [3]), the minimum inhibitory concentration (MIC) was 3.9 µg/mL (≈ 7.45 µM). For the same molecule, in experiment [1], the Interpretation entry is “R” and the “diameter zone of inhibition” value is 19 mm.
`CC(=O)OCC1=C(C(=O)O)N2C(=O)[C@@H](NC(=O)Cc3cccs3)[C@H]2SC1` [Cephalothin]: the MIC in experiment [1] (setting [3]) is 2.2 µg/mL (≈ 5.55 µM); in experiment [2] (Staphylococcus, read-out: MIC), 1.4 µg/mL (≈ 3.53 µM); with Escherichia coli (setting [4]), above 101 µg/mL. For the same molecule, the Interpretation entry (in experiment [1]; in experiment [2]; in the experiment with Escherichia coli) was “R” throughout. Further, the “diameter zone of inhibition” value in experiment [1] amounted to 25 mm; in experiment [2] it was 27 mm; in the experiment with Escherichia coli it was 6 mm.
As for `O=C(N[C@H](CO)[C@H](O)c1ccc([N+](=O)[O-])cc1)C(Cl)Cl` [Chloramphenicol], the minimal inhibitory concentration (MIC) in experiment [1] (setting [3]) amounted to 4.5 µg/mL (≈ 13.9 µM). In experiment [1], the Interpretation result was “S” and the “diameter zone of inhibition” value was found to be 26 mm.
With `CCC[C@@H]1C[C@@H](C(=O)N[C@@H]([C@H]2O[C@H](SC)[C@H](O)[C@@H](O)[C@H]2O)[C@H](C)Cl)N(C)C1` [Clindamycin], the MIC in experiment [1] (setting [3]) is above 10 µg/mL; in experiment [2] (Staphylococcus, read-out: MIC) it was above 10 µg/mL. The Interpretation entry in experiment [1] and in experiment [2] was “R” each time. The “diameter zone of inhibition” value in experiment [1] was 6 mm; in experiment [2] it was 7 mm.
Regarding `CN1CCN(c2cc3c(cc2F)c(=O)c(C(=O)O)cn3-c2ccc(F)cc2)CC1` [Difloxacin], the MIC in experiment [1] (setting [3]) is at most 0.07 µg/mL. Also, in experiment [1], the Interpretation result is reported as “S” and the “diameter zone of inhibition” value was found to be 30 mm.
As for `CCN1CCN(c2cc3c(cc2F)c(=O)c(C(=O)O)cn3C2CC2)CC1` [Enrofloxacin], the MIC in experiment [1] (setting [3]) is at most 0.099 µg/mL; in experiment [2] (Staphylococcus, read-out: MIC), above 19 µg/mL; with Escherichia coli (setting [4]), above 18 µg/mL. The values for the Interpretation entry (in experiment [1]; in experiment [2]; with Escherichia coli) were “S”, “R” and “R”, respectively. Besides, the “diameter zone of inhibition” value in experiment [1] turned out to be 29 mm; in experiment [2], 6 mm; in the experiment with Escherichia coli, 7 mm.
On to `CNC(C)C1CCC(N)C(OC2C(N)CC(N)C(OC3OCC(C)(O)C(NC)C3O)C2O)O1` (stereo not drawn) [Gentamicin], for which the MIC in experiment [1] (setting [3]) came to 31 µg/mL (≈ 64.9 µM); in experiment [2] (Staphylococcus, read-out: MIC), 7.9 µg/mL (≈ 16.5 µM); with Escherichia coli (setting [4]), 2.6 µg/mL (≈ 5.44 µM). Further, the Interpretation result was “R” in experiment [1], “I” in experiment [2] and “S” with Escherichia coli. Further, the “diameter zone of inhibition” value in experiment [1] is 9 mm; in experiment [2] it was 14 mm; in the experiment with Escherichia coli, 18 mm.
On to `C[C@@H](O)[C@H]1C(=O)N2C(C(=O)O)=C(SCCN=CN)C[C@H]12` [Imipenem], for which the MIC in experiment [1] (setting [3]) was at most 0.56 µg/mL. In experiment [1], the Interpretation result was “R” and the “diameter zone of inhibition” value is 39 mm.
As for `CN1CCN(c2c(F)cc3c(=O)c(C(=O)O)cn4c3c2OCN4C)CC1` [Marbofloxacin], the figures for the Interpretation entry (in experiment [1]; in experiment [2]; in the experiment on Escherichia coli) were “S”, “R” and “R”, respectively. The “diameter zone of inhibition” value in experiment [1] is 27 mm; in experiment [2], 6 mm; with Escherichia coli, 6 mm.
On to `C[C@@H]1CN(c2c(F)c(F)c3c(=O)c(C(=O)O)cn(C4CC4)c3c2F)C[C@H](C)N1` [Orbifloxacin], for which the minimum inhibitory concentration (MIC) is 0.25 µg/mL (≈ 0.632 µM) in experiment [1] (setting [3]); above 40 µg/mL in experiment [2] (Staphylococcus, read-out: MIC); above 40 µg/mL in the experiment on Escherichia coli (setting [4]). The Interpretation result in experiment [1] is “S”; in experiment [2], “R”; in the experiment on Escherichia coli, “R”. In addition, the “diameter zone of inhibition” value is given as 27 mm in experiment [1], 6 mm in experiment [2] and 6 mm with Escherichia coli.
On to `Cc1onc(-c2ccccc2)c1C(=O)N[C@@H]1C(=O)N2[C@@H]1SC(C)(C)[C@@H]2C(=O)O` [Oxacillin], for which, in experiment [1], the Interpretation result is “R” and the “diameter zone of inhibition” value turned out to be 6 mm. The MIC in experiment [2] (Staphylococcus, read-out: MIC) was 1.8 µg/mL (≈ 4.48 µM). In experiment [2], the Interpretation result was “R” and the “diameter zone of inhibition” value was found to be 14 mm.
On to `CCN1CCN(C(=O)N[C@@H](C(=O)N[C@@H]2C(=O)N3[C@@H]2SC(C)(C)[C@@H]3C(=O)O)c2ccccc2)C(=O)C1=O` [Piperacillin], for which, in experiment [1], the Interpretation entry is given as “R” and the “diameter zone of inhibition” value was found to be 12 mm.
Consider `CN(C)[C@@H]1C(O)=C(C(N)=O)C(=O)[C@@]2(O)C(O)=C3C(=O)c4c(O)cccc4[C@@](C)(O)[C@H]3C[C@@H]12` [Tetracycline], for which the MIC in experiment [1] (setting [3]) was 0.42 µg/mL (≈ 0.945 µM); in experiment [2] (Staphylococcus, read-out: MIC), above 33 µg/mL; in the experiment on Escherichia coli (setting [4]) it was 16 µg/mL (≈ 36 µM). For the same molecule, the results for the Interpretation entry (in experiment [1]; in experiment [2]; in the experiment on Escherichia coli) were “S”, “R” and “R”, respectively. For the same molecule, the “diameter zone of inhibition” value in experiment [1] is listed as 31 mm; in experiment [2] it was 8 mm; in the experiment on Escherichia coli, 13 mm.
On to `CC1(C)S[C@@H]2[C@H](NC(=O)[C@H](C(=O)O)c3ccsc3)C(=O)N2[C@H]1C(=O)O` [Ticarcillin], for which, in experiment [1], the Interpretation entry was “R” and the “diameter zone of inhibition” value is 14 mm.
Take Amoxicillin-clavulanate: in experiment [1], the Interpretation result is given as “R”, the MIC came to 14 µg/mL and the “diameter zone of inhibition” value is reported as 16 mm. Also, in experiment [2], the Interpretation entry is “R”, the minimum inhibitory concentration (MIC) worked out at 2.9 µg/mL and the “diameter zone of inhibition” value is given as 24 mm. Moreover, in the experiment with Escherichia coli, the Interpretation result is “R”, the MIC is above 64 µg/mL and the “diameter zone of inhibition” value was found to be 8 mm.
Take Polymixin-B: in experiment [1], the Interpretation entry is given as “R” and the “diameter zone of inhibition” value worked out at 9 mm.
For Titracillin-clavulanate the same measures were “R” and 15 mm.
For the molecule Trimethoprim-sulfamethoxazole, the values for the Interpretation result (in experiment [1]; in experiment [2]; with Escherichia coli) were “S”, “R” and “R”, respectively. For the same molecule, the MIC result is “<= 4.1 mcg/mL” in experiment [1], above 10 µg/mL in experiment [2] and above 10 µg/mL in the experiment on Escherichia coli. Further, the “diameter zone of inhibition” value in experiment [1] turned out to be 31 mm; in experiment [2] it was 6 mm; in the experiment with Escherichia coli, 6 mm.
